Laboratory results taken from patent US12077503B2, “Substituted cyclic amides and their use as herbicides” (FMC CORPORATION, priority 2015, dated 2024).

Tests used:
Type in all cases: in vivo
rice (Oryra sativa) = assay: Test B flooded paddy test; conditions: Oryza sativa, 250 g ai/ha, Flood; 0 to 100 scale where 0 is no effect and 100 is complete control; read-out: Rice plant response rating
How it was run: (§1)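 Plants at 2-leaf stage flooded to 3 cm above soil, with compounds applied directly to paddy water and that depth maintained. Plants kept in greenhouse 13–15 d. Visual rating versus controls on a 0 (no effect) to 100 (complete control) scale.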

[1] = system: sedge, umbrella (small-flower umbrella sedge, Cyperus difformis); assay: Test B flooded paddy test; conditions: Cyperus difformis, 250 g ai/ha, Flood; 0 to 100 scale where 0 is no effect and 100 is complete control; read-out: Sedge, Umbrella plant response rating
How it was run: as §1

[2] = system: ducksalad (Heteranthera limosa); assay: Test B flooded paddy test; conditions: Heteranthera limosa, 250 g ai/ha, Flood; 0 to 100 scale where 0 is no effect and 100 is complete control; read-out: Ducksalad plant response rating
How it was run: as §1

[3] = system: barnyardgrass (Echinochloa crus-galli); assay: Test B flooded paddy test; conditions: Echinochloa crus-galli, 250 g ai/ha, Flood; 0 to 100 scale where 0 is no effect and 100 is complete control; read-out: Barnyardgrass plant response rating
How it was run: as §1

Kochia (Kochia scoparia) [4] = assay: Test A postemergence; conditions: Bassia scoparia, post-emergence, 240 h, Postemergence, read-out: Kochia plant response rating (0 to 100 scale); for pest or weed control at 125 g/ha: 125 g ai/ha, visual rating about 10 d after treatment; for pest or weed control at 31 g/ha: 31 g ai/ha, 0 is no effect, 100 is complete control
How it was run: (§2)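 Compounds were formulated in a non-phytotoxic solvent mixture with surfactant and applied as a preemergence directed soil spray after seeding, or sprayed postemergence over plants 2 to 10 cm tall at the one- to two-leaf stage. Evaluation after about 10 d compared treated with untreated controls, using a scale from 0 (no effect) to 100 (complete control).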

[5] = system: pigweed (Amaranthus retroflexus); assay: Test A postemergence; conditions: Amaranthus retroflexus, post-emergence, 240 h, Postemergence, read-out: Pigweed plant response rating (0 to 100 scale); for pest or weed control at 125 g/ha: 125 g ai/ha, visual rating about 10 d after treatment; for pest or weed control at 31 g/ha: 31 g ai/ha, 0 is no effect, 100 is complete control
How it was run: as §2

[6] = system: ryegrass, Italian (Italian ryegrass, Lolium multiflorum); assay: Test A postemergence; conditions: Lolium multiflorum, post-emergence, 240 h, Postemergence, read-out: Ryegrass, Italian plant response rating (0 to 100 scale); for pest or weed control at 125 g/ha: 125 g ai/ha, visual rating about 10 d after treatment; for pest or weed control at 31 g/ha: 31 g ai/ha, 0 is no effect, 100 is complete control
How it was run: as §2

[7] = system: ragweed (common ragweed, Ambrosia elatior); assay: Test A postemergence; conditions: Ambrosia artemisiifolia, post-emergence, 240 h, Postemergence, read-out: Ragweed plant response rating (0 to 100 scale); for pest or weed control at 125 g/ha: 125 g ai/ha, visual rating about 10 d after treatment; for pest or weed control at 31 g/ha: 31 g ai/ha, 0 is no effect, 100 is complete control
How it was run: as §2

[8] = system: wheat (Triticum aestivum); assay: Test A postemergence; conditions: Triticum aestivum, post-emergence, 240 h, Postemergence, read-out: Wheat plant response rating (0 to 100 scale); for plant injury at 125 g/ha: 125 g ai/ha, visual rating about 10 d after treatment; for plant injury at 31 g/ha: 31 g ai/ha, 0 is no effect, 100 is complete control
How it was run: as §2

[9] = system: Galium (catchweed bedstraw, Galium aparine); assay: Test A postemergence; conditions: Galium, post-emergence, 240 h, Postemergence, read-out: Galium plant response rating (0 to 100 scale); for pest or weed control at 125 g/ha: 125 g ai/ha, visual rating about 10 d after treatment; for pest or weed control at 31 g/ha: 31 g ai/ha, 0 is no effect, 100 is complete control
How it was run: as §2

[10] = system: giant foxtail (Setaria faberii); assay: Test A postemergence; conditions: Setaria faberi, post-emergence, 240 h, Postemergence, read-out: Foxtail, Giant plant response rating (0 to 100 scale); for pest or weed control at 125 g/ha: 125 g ai/ha, visual rating about 10 d after treatment; for pest or weed control at 31 g/ha: 31 g ai/ha, 0 is no effect, 100 is complete control
How it was run: as §2

[11] = system: blackgrass (Alopecurus myosuroides); assay: Test A postemergence; conditions: Alopecurus myosuroides, post-emergence, 240 h, Postemergence, read-out: Blackgrass plant response rating (0 to 100 scale); for pest or weed control at 125 g/ha: 125 g ai/ha, visual rating about 10 d after treatment; for pest or weed control at 31 g/ha: 31 g ai/ha, 0 is no effect, 100 is complete control
How it was run: as §2

corn (Zea mays) = assay: Test A postemergence; conditions: Zea mays, post-emergence, 240 h, Postemergence, read-out: Corn plant response rating (0 to 100 scale); for plant injury at 125 g/ha: 125 g ai/ha, visual rating about 10 d after treatment; for plant injury at 31 g/ha: 31 g ai/ha, 0 is no effect, 100 is complete control
How it was run: as §2

[12] = system: barnyardgrass (Echinochloa crus-galli); assay: Test A postemergence; conditions: Echinochloa crus-galli, post-emergence, 240 h, Postemergence; for pest or weed control at 125 g/ha: 125 g ai/ha, visual rating about 10 d after treatment, read-out: Barnyardgrass plant response rating (0 to 100 scale, 0 no effect, 100 complete control); for pest or weed control at 31 g/ha: 31 g ai/ha, 0 is no effect, 100 is complete control, read-out: Barnyardgrass plant response rating (0 to 100 scale)
How it was run: as §2

Kochia (Kochia scoparia) [13] = assay: Test A preemergence; conditions: Bassia scoparia, pre-emergence, 240 h, 0 to 100 scale where 0 is no effect and 100 is complete control, read-out: Kochia plant response rating; for pest or weed control at 31 g/ha: 31 g ai/ha, Preemergence; for pest or weed control at 125 g/ha: 125 g ai/ha, preemergence, visual injury rating, approximately 10 d
How it was run: as §2

[14] = system: pigweed (Amaranthus retroflexus); assay: Test A preemergence; conditions: Amaranthus retroflexus, pre-emergence, 240 h, 0 to 100 scale where 0 is no effect and 100 is complete control, read-out: Pigweed plant response rating; for pest or weed control at 31 g/ha: 31 g ai/ha, Preemergence; for pest or weed control at 125 g/ha: 125 g ai/ha, preemergence, visual injury rating, approximately 10 d
[15] = system: ryegrass, Italian (Italian ryegrass, Lolium multiflorum); assay: Test A preemergence; conditions: Lolium multiflorum, pre-emergence, 240 h, 0 to 100 scale where 0 is no effect and 100 is complete control, read-out: Ryegrass, Italian plant response rating; for pest or weed control at 31 g/ha: 31 g ai/ha, Preemergence; for pest or weed control at 125 g/ha: 125 g ai/ha, preemergence, visual injury rating, approximately 10 d
How it was run: as §2

[16] = system: ragweed (common ragweed, Ambrosia elatior); assay: Test A preemergence; conditions: Ambrosia artemisiifolia, pre-emergence, 240 h, 0 to 100 scale where 0 is no effect and 100 is complete control, read-out: Ragweed plant response rating; for pest or weed control at 31 g/ha: 31 g ai/ha, Preemergence; for pest or weed control at 125 g/ha: 125 g ai/ha, preemergence, visual injury rating, approximately 10 d
How it was run: as §2

[17] = system: giant foxtail (Setaria faberii); assay: Test A preemergence; conditions: Setaria faberi, pre-emergence, 240 h, 0 to 100 scale where 0 is no effect and 100 is complete control, read-out: Foxtail, Giant plant response rating; for pest or weed control at 31 g/ha: 31 g ai/ha, Preemergence; for pest or weed control at 125 g/ha: 125 g ai/ha, preemergence, visual injury rating, approximately 10 d
How it was run: as §2

[18] = system: barnyardgrass (Echinochloa crus-galli); assay: Test A preemergence; conditions: Echinochloa crus-galli, pre-emergence, 240 h, 0 to 100 scale where 0 is no effect and 100 is complete control, read-out: Barnyardgrass plant response rating; for pest or weed control at 31 g/ha: 31 g ai/ha, Preemergence; for pest or weed control at 125 g/ha: 125 g ai/ha, preemergence, visual injury rating, approximately 10 d
How it was run: as §2

Compound: Cc1ccc([C@H]2CN(C)C(=O)[C@@H]2C(=O)Nc2c(F)c(F)c(F)c(F)c2F)cc1 [Compound 1292]
- pest or weed control at 250 g/ha (rice (Oryra sativa)): 15%
- pest or weed control at 250 g/ha [1]: 0%
- pest or weed control at 250 g/ha [2]: 0%
- pest or weed control at 250 g/ha [3]: 0%
- pest or weed control at 125 g/ha (Kochia (Kochia scoparia) [4]): 0%
- pest or weed control at 31 g/ha (Kochia (Kochia scoparia) [4]): 0%
- pest or weed control at 125 g/ha [5]: 0%
- pest or weed control at 31 g/ha [5]: 0%
- pest or weed control at 125 g/ha [6]: 0%
- pest or weed control at 31 g/ha [6]: 0%
- pest or weed control at 125 g/ha [7]: 0%
- pest or weed control at 31 g/ha [7]: 0%
- plant injury at 125 g/ha [8]: 0%
- plant injury at 31 g/ha [8]: 0%
- pest or weed control at 125 g/ha [9]: 0%
- pest or weed control at 31 g/ha [9]: 0%
- pest or weed control at 125 g/ha [10]: 0%
- pest or weed control at 31 g/ha [10]: 0%
- pest or weed control at 125 g/ha [11]: 0%
- pest or weed control at 31 g/ha [11]: 0%
- plant injury at 125 g/ha (corn (Zea mays)): 0%
- plant injury at 31 g/ha (corn (Zea mays)): 0%
- pest or weed control at 125 g/ha [12]: 0%
- pest or weed control at 31 g/ha [12]: 0%
- pest or weed control at 31 g/ha (Kochia (Kochia scoparia) [13]): 60%
- pest or weed control at 125 g/ha (Kochia (Kochia scoparia) [13]): 60%
- pest or weed control at 31 g/ha [14]: 40%
- pest or weed control at 125 g/ha [14]: 40%
- pest or weed control at 31 g/ha [15]: 0%
- pest or weed control at 125 g/ha [15]: 40%
- pest or weed control at 31 g/ha [16]: 0%
- pest or weed control at 125 g/ha [16]: 0%
- pest or weed control at 31 g/ha [17]: 70%
- pest or weed control at 125 g/ha [17]: 80%
- pest or weed control at 31 g/ha [18]: 0%
- pest or weed control at 125 g/ha [18]: 50%

Compound: O=C(Nc1ccccc1F)C1C(=O)N(CC(F)F)CC1c1cccc(C(F)(F)F)c1 (stereo not drawn) [Compound 1293]
- pest or weed control at 250 g/ha (rice (Oryra sativa)): 0%
- pest or weed control at 250 g/ha [1]: 0%
- pest or weed control at 250 g/ha [2]: 0%
- pest or weed control at 250 g/ha [3]: 0%
- pest or weed control at 125 g/ha (Kochia (Kochia scoparia) [4]): 0%
- pest or weed control at 31 g/ha (Kochia (Kochia scoparia) [4]): 0%
- pest or weed control at 125 g/ha [5]: 0%
- pest or weed control at 31 g/ha [5]: 0%
- pest or weed control at 125 g/ha [6]: 0%
- pest or weed control at 31 g/ha [6]: 0%
- pest or weed control at 125 g/ha [7]: 0%
- pest or weed control at 31 g/ha [7]: 0%
- plant injury at 125 g/ha [8]: 0%
- plant injury at 31 g/ha [8]: 0%
- pest or weed control at 125 g/ha [9]: 0%
- pest or weed control at 31 g/ha [9]: 0%
- pest or weed control at 125 g/ha [10]: 0%
- pest or weed control at 31 g/ha [10]: 0%
- pest or weed control at 125 g/ha [11]: 0%
- pest or weed control at 31 g/ha [11]: 0%
- plant injury at 125 g/ha (corn (Zea mays)): 0%
- plant injury at 31 g/ha (corn (Zea mays)): 0%
- pest or weed control at 125 g/ha [12]: 20%
- pest or weed control at 31 g/ha [12]: 0%
- pest or weed control at 31 g/ha (Kochia (Kochia scoparia) [13]): 0%
- pest or weed control at 125 g/ha (Kochia (Kochia scoparia) [13]): 0%
- pest or weed control at 31 g/ha [14]: 0%
- pest or weed control at 125 g/ha [14]: 0%
- pest or weed control at 31 g/ha [15]: 0%
- pest or weed control at 125 g/ha [15]: 0%
- pest or weed control at 31 g/ha [16]: 0%
- pest or weed control at 125 g/ha [16]: 0%
- pest or weed control at 31 g/ha [17]: 0%
- pest or weed control at 125 g/ha [17]: 20%
- pest or weed control at 31 g/ha [18]: 0%
- pest or weed control at 125 g/ha [18]: 20%
